# Results: ChEMBL document CHEMBL4602605, “Fluoroquinolones structural and medicinal developments (2013-2018): Where are we now?” (Bioorg Med Chem, 2019)
# Key:
# [1] = tested on: Yersinia pseudotuberculosis; test: Antimicrobial activity against Yersinia pseudotuberculosis ATCC 911 incubated for 18 to 24 hrs by microbroth dilution method; type: functional
# Escherichia coli [2] = test: Antimicrobial activity against Escherichia coli ATCC 25922 incubated for 18 to 24 hrs by microbroth dilution method; type: functional
# [3] = tested on: Mycolicibacterium smegmatis; test: Antimicrobial activity against Mycobacterium smegmatis ATCC 607 incubated for 48 to 72 hrs by microbroth dilution method; type: functional
# Pseudomonas aeruginosa = test: Antimicrobial activity against Pseudomonas aeruginosa ATCC 43288 incubated for 18 to 24 hrs by microbroth dilution method; type: functional
# Enterococcus faecalis [4] = test: Antimicrobial activity against Enterococcus faecalis ATCC 29212 incubated for 18 to 24 hrs by microbroth dilution method; type: functional
# Staphylococcus aureus [5] = test: Antimicrobial activity against Staphylococcus aureus ATCC 25923 incubated for 18 to 24 hrs by microbroth dilution method; type: functional
# Bacillus cereus = test: Antimicrobial activity against Bacillus cereus 709 Roma incubated for 18 to 24 hrs by microbroth dilution method; type: functional
# PC-3 = test: Growth inhibition of human PC3 cells by MTT assay; type: functional, cell-based
# [6] = tested on: Mycolicibacterium smegmatis; test: Antimicrobial activity against Mycobacterium smegmatis incubated for 30 to 32 hrs by spectrophotometry based assay; type: functional
# Candida albicans = test: Antifungal activity against Candida albicans after overnight incubation by agar well diffusion method; type: functional
# Escherichia coli [7] = test: Antimicrobial activity against penicillin-resistant Escherichia coli at < 1 ug/ml relative to control; type: functional
# PANC-1 = test: Growth inhibition of human PANC1 cells at 10 uM incubated for 48 hrs by MTT assay; type: functional; conditions: PANC-1, 48 h, read-out: GI
# A549 = test: Growth inhibition of human A549 cells at 10 uM incubated for 48 hrs by MTT assay relative to control; type: functional; conditions: A549, 48 h, read-out: GI
# Moraxella catarrhalis = test: Antimicrobial activity against Moraxella catarrhalis ATCC 25238 incubated for 24 hrs by serial dilution method; type: functional; conditions: ATCC 25238, 24 h
# Klebsiella pneumoniae = test: Antimicrobial activity against Klebsiella pneumoniae ATCC 35657 incubated for 24 hrs by serial dilution method; type: functional; conditions: ATCC 35657, 24 h
# Staphylococcus aureus [8] = test: Antimicrobial activity against methicillin-resistant Staphylococcus aureus ATCC 33591 incubated for 24 hrs by serial dilution method; type: functional; conditions: ATCC 33591, 24 h
# Staphylococcus aureus [9] = test: Antimicrobial activity against methicillin-susceptible Staphylococcus aureus ATCC 29213 incubated for 24 hrs by serial dilution method; type: functional; conditions: ATCC 29213, 24 h
# Escherichia coli [10] = test: Antimicrobial activity against Escherichia coli ATCC 35218 incubated for 24 hrs by serial dilution method; type: functional; conditions: ATCC 35218, 24 h
# HeLa = test: Growth inhibition of human HeLa cells at 10 uM incubated for 48 hrs by MTT assay relative to control; type: functional; conditions: read-out: GI
# HCT-116 = test: Growth inhibition of human HCT116 cells at 10 uM incubated for 48 hrs by MTT assay relative to control; type: functional; conditions: HCT-116, 48 h, read-out: GI
# Enterococcus faecalis [11] = test: Antimicrobial activity against Enterococcus faecalis ATCC 29212 incubated for 24 hrs by serial dilution method; type: functional; conditions: ATCC 29212, 24 h
# Escherichia coli [12] = test: Antimicrobial activity against Escherichia coli ATCC 25922 by CLSI method; type: functional
# Staphylococcus aureus [13] = test: Antimicrobial activity against Staphylococcus aureus ATCC 25923 by CLSI method; type: functional
# Aspergillus clavatus = test: Antifungal activity against Aspergillus clavatus after overnight incubation by agar well diffusion method; type: functional
# Mycolicibacter terrae = test: Antimicrobial activity against Mycobacterium terrae incubated for 10 days by microbroth dilution method; type: functional; conditions: 240 h
# [14] = tested on: Mycobacterium tuberculosis; test: Antimicrobial activity against Mycobacterium tuberculosis H37Rv incubated for 10 days by microbroth dilution method; type: functional; conditions: 240 h
# Mycobacterium avium = test: Antimicrobial activity against Mycobacterium avium incubated for 10 days by microbroth dilution method; type: functional; conditions: 240 h
compound,measurement,setting,value
O=C(O)c1cn(C2CC2)c2cc(N3CCN(Cn4nc(CN5CCN(c6ccc([N+](=O)[O-])cc6)CC5)oc4=S)CC3)c(F)cc2c1=O,MIC,[1],0.03 µg/mL
same,MIC,Escherichia coli [2],0.03 µg/mL
same,MIC,[3],0.03 µg/mL
same,MIC,Pseudomonas aeruginosa,0.03 µg/mL
same,MIC,Enterococcus faecalis [4],0.03 µg/mL
same,MIC,Staphylococcus aureus [5],0.03 µg/mL
same,MIC,Bacillus cereus,0.03 µg/mL
CCn1c(CN2CCN(c3ccc([N+](=O)[O-])cc3)CC2)nn(CN2CCN(c3cc4c(cc3F)c(=O)c(C(=O)O)cn4CC)CC2)c1=S,MIC,[1],0.25 µg/mL
same,MIC,Escherichia coli [2],≤ 0.03 µg/mL
same,MIC,[3],0.244 µg/mL
same,MIC,Pseudomonas aeruginosa,0.25 to 0.5 µg/mL
same,MIC,Enterococcus faecalis [4],0.122 µg/mL
same,MIC,Staphylococcus aureus [5],0.25 to 0.99 µg/mL
same,MIC,Bacillus cereus,0.122 to 0.25 µg/mL
COc1c(N2CCN(C)CC2)c(F)cc2c(=O)c(C(=O)N/N=C\c3c(Cl)cccc3Cl)cn(C3CC3)c12,IC50,PC-3,4.9 µg/mL
same,MIC,[6],27 µM
same,inhibition zone (IZ),Candida albicans,9 mm
CCCCCCCCOC(=O)c1cn(C2CC2)c2cc(N3CCNCC3)c(F)cc2c1=O,inhibition (INH),Escherichia coli [7],>60%
CN(C)Cc1cn(-c2cc3c(cc2F)c(=O)c(C(=O)NO)cn3C2CC2)nn1,inhibition of growth at 10 µM,PANC-1,20%
same,inhibition of growth at 10 µM,A549,30%
same,MIC,Moraxella catarrhalis,> 64 µg/mL
same,MIC,Klebsiella pneumoniae,> 64 µg/mL
same,MIC,Staphylococcus aureus [8],> 64 µg/mL
same,MIC,Staphylococcus aureus [9],> 64 µg/mL
same,MIC,Escherichia coli [10],> 64 µg/mL
same,inhibition of growth at 10 µM,HeLa,23%
same,inhibition of growth at 10 µM,HCT-116,15%
same,MIC,Enterococcus faecalis [11],> 64 µg/mL
CCN1CCN(c2cc3c(cc2F)c(=O)c(C(=O)O)cn3C2CC2)CC1 [ENROFLOXACIN],MIC,Escherichia coli [12],0.031 µg/mL
same,MIC,Staphylococcus aureus [13],2 µg/mL
CCn1cc(C(=O)O)c(=O)c2cc(F)c(N3CCN(Cn4nc(CN5CCN(c6ccc([N+](=O)[O-])cc6)CC5)oc4=S)CC3)cc21,MIC,[1],< 0.25 µg/mL
same,MIC,Escherichia coli [2],0.03 µg/mL
same,MIC,[3],1 µg/mL
same,MIC,Pseudomonas aeruginosa,< 0.25 µg/mL
same,MIC,Enterococcus faecalis [4],< 0.25 µg/mL
same,MIC,Staphylococcus aureus [5],0.25 µg/mL
same,MIC,Bacillus cereus,< 0.25 µg/mL
CCn1cc(C(=O)O)c(=O)c2cc(F)c(N3CCN(Cn4nc(CN5CCN(c6ccc([N+](=O)[O-])cc6)CC5)n(-c5ccc(F)cc5)c4=S)CC3)cc21,MIC,[1],0.24 µg/mL
same,MIC,Escherichia coli [2],< 0.03 µg/mL
same,MIC,[3],0.244 µg/mL
same,MIC,Pseudomonas aeruginosa,0.48 µg/mL
same,MIC,Enterococcus faecalis [4],0.25 µg/mL
same,MIC,Staphylococcus aureus [5],0.48 µg/mL
same,MIC,Bacillus cereus,0.24 µg/mL
COc1c(N2CCN(C)CC2)c(F)cc2c(=O)c(C(=O)N/N=C\c3cccc(O)c3)cn(C3CC3)c12,IC50,PC-3,3.4 µg/mL
same,MIC,[6],27.2 µM
CCn1cc(C(=O)O)c(=O)c2cc(F)c(N3CCN(Cn4nc(CN5CCN(c6ccc([N+](=O)[O-])cc6)CC5)n(Cc5ccccc5)c4=O)CC3)cc21,MIC,Escherichia coli [2],0.25 to 0.99 µg/mL
same,MIC,[3],0.244 to 0.99 µg/mL
same,MIC,Pseudomonas aeruginosa,0.24 to 0.5 µg/mL
same,MIC,Enterococcus faecalis [4],0.48 to 0.5 µg/mL
same,MIC,Staphylococcus aureus [5],0.24 to 0.25 µg/mL
same,MIC,Bacillus cereus,0.24 to 0.25 µg/mL
COc1c(N2CCN(C)CC2)c(F)cc2c(=O)c(C(=O)N/N=C\c3cccc(C)c3)cn(C3CC3)c12,IC50,PC-3,10 µg/mL
same,MIC,[6],42.5 µM
same,inhibition zone (IZ),Candida albicans,10 mm
same,inhibition zone (IZ),Aspergillus clavatus,11 mm
O=C(NO)c1cn(C2CC2)c2cc(-n3cc(CN4CCOCC4)nn3)c(F)cc2c1=O,inhibition of growth at 10 µM,PANC-1,13%
same,inhibition of growth at 10 µM,A549,15%
same,MIC,Moraxella catarrhalis,8 µg/mL
same,MIC,Klebsiella pneumoniae,4 µg/mL
same,MIC,Staphylococcus aureus [8],> 64 µg/mL
same,MIC,Staphylococcus aureus [9],> 64 µg/mL
same,MIC,Escherichia coli [10],8 µg/mL
same,inhibition of growth at 10 µM,HeLa,20%
same,inhibition of growth at 10 µM,HCT-116,15%
same,MIC,Enterococcus faecalis [11],> 64 µg/mL
CCn1cc(C(=O)O)c(=O)c2cc(F)c(-c3cc4cc(C(C)(C)C)cc(C(C)(C)C)c4oc3=O)cc21,MIC,Mycolicibacter terrae,1.5 µg/mL
same,MIC,[14],3.1 µg/mL
same,MIC,Mycobacterium avium,3.1 µg/mL
O=C(NO)c1cn(C2CC2)c2cc(-n3cc(CN4CCCCC4)nn3)c(F)cc2c1=O,inhibition of growth at 10 µM,PANC-1,10%
same,inhibition of growth at 10 µM,A549,10%
same,MIC,Moraxella catarrhalis,64 µg/mL
same,MIC,Klebsiella pneumoniae,64 µg/mL
same,MIC,Staphylococcus aureus [8],> 64 µg/mL
same,MIC,Staphylococcus aureus [9],> 64 µg/mL
same,MIC,Escherichia coli [10],64 µg/mL
same,inhibition of growth at 10 µM,HeLa,5%
same,inhibition of growth at 10 µM,HCT-116,20%
same,MIC,Enterococcus faecalis [11],> 64 µg/mL
CC(C)NCc1cn(-c2cc3c(cc2F)c(=O)c(C(=O)NO)cn3C2CC2)nn1,inhibition of growth at 10 µM,PANC-1,15%
same,inhibition of growth at 10 µM,A549,35%
same,MIC,Moraxella catarrhalis,> 64 µg/mL
same,MIC,Klebsiella pneumoniae,> 64 µg/mL
same,MIC,Staphylococcus aureus [8],> 64 µg/mL
same,MIC,Staphylococcus aureus [9],> 64 µg/mL
same,MIC,Escherichia coli [10],> 64 µg/mL
same,inhibition of growth at 10 µM,HeLa,30%
same,inhibition of growth at 10 µM,HCT-116,30%
same,MIC,Enterococcus faecalis [11],> 64 µg/mL
CCN(CC)Cc1cn(-c2cc3c(cc2F)c(=O)c(C(=O)NO)cn3C2CC2)nn1,inhibition of growth at 10 µM,PANC-1,30%
same,inhibition of growth at 10 µM,A549,40%
same,MIC,Moraxella catarrhalis,16 µg/mL
same,MIC,Klebsiella pneumoniae,8 µg/mL
same,MIC,Staphylococcus aureus [8],> 64 µg/mL
same,MIC,Staphylococcus aureus [9],64 µg/mL
same,MIC,Escherichia coli [10],16 µg/mL
same,inhibition of growth at 10 µM,HeLa,10%
same,inhibition of growth at 10 µM,HCT-116,30%
same,MIC,Enterococcus faecalis [11],64 µg/mL
O=C(O)c1cn(C2CC2)c2cc(N3CCN(Cc4ccccc4)CC3)c(F)cc2c1=O,MIC,Escherichia coli [12],0.25 µg/mL
same,MIC,Staphylococcus aureus [13],0.25 µg/mL
CCCOC(=O)c1cn(C2CC2)c2cc(N3CCNCC3)c(F)cc2c1=O,inhibition (INH),Escherichia coli [7],>60%
CCCN(CCC)Cc1cn(-c2cc3c(cc2F)c(=O)c(C(=O)NO)cn3C2CC2)nn1,inhibition of growth at 10 µM,PANC-1,15%
same,inhibition of growth at 10 µM,A549,20%
same,MIC,Moraxella catarrhalis,64 µg/mL
same,MIC,Klebsiella pneumoniae,32 µg/mL
same,MIC,Staphylococcus aureus [8],> 64 µg/mL
same,MIC,Staphylococcus aureus [9],64 µg/mL
same,MIC,Escherichia coli [10],64 µg/mL
same,inhibition of growth at 10 µM,HeLa,15%
same,inhibition of growth at 10 µM,HCT-116,10%
same,MIC,Enterococcus faecalis [11],64 µg/mL
O=C(O)c1cn(C2CC2)c2cc(N3CCN(C(=O)c4ccccc4)CC3)c(F)cc2c1=O,MIC,Escherichia coli [12],2 µg/mL
same,MIC,Staphylococcus aureus [13],1 µg/mL
CCn1cc(C(=O)O)c(=O)c2cc(F)c(-c3cc4cc(Br)ccc4oc3=O)cc21,MIC,Mycolicibacter terrae,6.2 µg/mL
same,MIC,[14],6.2 µg/mL
same,MIC,Mycobacterium avium,6.2 µg/mL
CCCCCOC(=O)c1cn(C2CC2)c2cc(N3CCNCC3)c(F)cc2c1=O,inhibition (INH),Escherichia coli [7],>60%
CC(=O)N1CCN(c2cc3c(cc2F)c(=O)c(C(=O)O)cn3C2CC2)CC1,MIC,Escherichia coli [12],0.5 µg/mL
same,MIC,Staphylococcus aureus [13],0.5 µg/mL
COc1cc(/C=N\NC(=O)c2cn(C3CC3)c3c(OC)c(N4CCN(C)CC4)c(F)cc3c2=O)cc(OC)c1OC,IC50,PC-3,8.5 µg/mL
same,MIC,[6],81.2 µM
same,inhibition zone (IZ),Candida albicans,13 mm
same,inhibition zone (IZ),Aspergillus clavatus,13 mm
